{
  "source": "patent US7759345B2",
  "about": "“Antitumoral derivatives of ET-743” (priority 2001, dated 2010)",
  "format_in_all_cases": "cell-based",
  "details_in_all_cases": "SRB, 48 hours exposure",
  "key": {"K-562": {"test_system": "K-562", "assay": "Inhibition of cells growth by colorimetric assay (SRB), K-562", "protocol": "(§1) 2°.—Inhibition of Cells Growth by Colorimetric Assay.\n(§2) A colorimetric type of assay, using sulforhodamine B (SRB) reaction has been adapted for a quantitative measurement of cell growth and viability [following the technique described by Philip Skehan, et al. (1990), New colorimetric cytotoxicity assay for anticancer drug screening, J. Natl. Cancer Inst., 82:1107-1112]\n(§3) This form of the assay employs 96 well cell culture microplates of 9 mm diameter (Faircloth, 1988; Mosmann, 1983). Most of the cell lines are obtained from American Type Culture Collection (ATCC) derived from different human cancer types.\n(§4) Cells are maintained in RPMI 1640 10% FBS, supplemented with 0.1 g/l penicillin and 0.1 g/l streptomycin sulfate and then incubated at 37° C., 5% CO2 and 98% humidity. For the experiments, cells were harvested from subconfluent cultures using trypsin and resuspended in fresh medium before plating.\n(§5) Cells are seeded in 96 well microtiter plates, at 5×10^3 cells per well in aliquots of 195 μl medium, and they are allowed to attach to the plate surface by growing in drug free medium for 18 hours. Afterward, samples are added in aliquots of 5 μl in a ranging from 10 to 10^−8 μg/ml, dissolved in DMSO/EtOH/PBS (0.5:0.5:99). After 48 hours exposure, the antitumor effect are measured by the SRB methodology: cells are fixed by adding 50 μl of cold 50% (wt/vol) trichloroacetic acid (TCA) and incubating for 60 minutes at 4° C. Plates are washed with deionized water and dried. One hundred μl of SRB solution (0.4% wt/vol in 1% acetic acid) is added to each microtiter well and incubated for 10 minutes at room temperature. Unbound SRB is removed by washing with 1% acetic acid. Plates are air dried and bound stain is solubilized with Tris buffer. Optical densities are read on a automated spectrophotometric plate reader at a single wavelength of 490 nm.\n(§6) The values for mean+/−SD of data from triplicate wells are calculated. Some parameters for cellular responses can be calculated: GI=growth inhibition, TGI=total growth inhibition (cytostatic effect) and LC=cell killing (cytotoxic effect).\n(§7) Obtained results may predict the usefulness of a certain drug as a potential cancer treatment. For this technique, compounds which show GI50 values smaller than 10 μg/ml are selected to continue with further studies. GI50's data allow to predict that not only could a drug be cystostatic, but also it could have a potential in terms of tumor reduction."}, "A-549": {"test_system": "A-549", "assay": "Inhibition of cells growth by colorimetric assay (SRB), A-549", "how_it_was_run": "(§8)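 First, cells were plated at 5×10^3 per well and left 18 h to attach. Next, compound was added over 10 to 10^−8 μg/ml for 48 h. Finally, cells were TCA-fixed, SRB-stained and absorbance read at 490 nm.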"}, "SK-MEL-28": {"test_system": "SK-MEL-28", "assay": "Inhibition of cells growth by colorimetric assay (SRB), SK-MEL-28", "how_it_was_run": "as §8"}, "HT-29": {"test_system": "HT-29", "assay": "Inhibition of cells growth by colorimetric assay (SRB), HT-29", "how_it_was_run": "as §8"}, "LoVo": {"test_system": "LoVo", "assay": "Inhibition of cells growth by colorimetric assay (SRB), LoVo", "protocol": "as §1, §2, §3, §4, §5, §6, §7"}, "LoVo-Dox": {"test_system": "LoVo-Dox", "assay": "Inhibition of cells growth by colorimetric assay (SRB), LoVo-Dox", "protocol": "as §1, §2, §3, §4, §5, §6, §7"}, "DU-145": {"test_system": "DU-145", "assay": "Inhibition of cells growth by colorimetric assay (SRB), DU-145", "protocol": "as §1, §2, §3, §4, §5, §6, §7"}, "LNCaP": {"test_system": "LNCaP", "assay": "Inhibition of cells growth by colorimetric assay (SRB), LNCaP", "protocol": "as §1, §2, §3, §4, §5, §6, §7"}, "SK-BR-3": {"test_system": "SK-BR-3", "assay": "Inhibition of cells growth by colorimetric assay (SRB), SK-BR-3", "protocol": "as §1, §2, §3, §4, §5, §6, §7"}, "IGROV-1": {"test_system": "IGROV-1", "assay": "Inhibition of cells growth by colorimetric assay (SRB), IGROV-1", "protocol": "as §1, §2, §3, §4, §5, §6, §7"}, "IGROV-ET": {"test_system": "IGROV-ET", "assay": "Inhibition of cells growth by colorimetric assay (SRB), IGROV-ET", "protocol": "as §1, §2, §3, §4, §5, §6, §7"}, "SK-OV-3": {"test_system": "SK-OV-3", "assay": "Inhibition of cells growth by colorimetric assay (SRB), SK-OV-3", "protocol": "as §1, §2, §3, §4, §5, §6, §7"}, "PANC-1": {"test_system": "PANC-1", "assay": "Inhibition of cells growth by colorimetric assay (SRB), PANC-1", "protocol": "as §1, §2, §3, §4, §5, §6, §7"}, "HMEC1": {"test_system": "HMEC1", "assay": "Inhibition of cells growth by colorimetric assay (SRB), HMEC1", "protocol": "as §1, §2, §3, §4, §5, §6, §7"}},
  "data": [
    {"compound": "C=COC(=O)Oc1cc2c(cc1OC)[C@@]1(CS[C@@H]3c4c(OC(C)=O)c(C)c5c(c4[C@H](COC1=O)N1C3[C@H]3c4c(cc(C)c(OC)c4O)C[C@@H]([C@@H]1O)N3C)OCO5)N(C(=O)OC=C)CC2", "note": "(stereo partly drawn) [Compound 100]", "values": [
      {"measurement": "GI50", "setting": "K-562; Homo sapiens, K562, 48 h, K-562, read-out: K-562 GI50", "result": 36.4, "unit": "nM"},
      {"measurement": "LC50 (50% cell killing)", "setting": "K-562; Homo sapiens, K562, 48 h, read-out: K-562 LC50, K-562", "result": 106, "unit": "nM"},
      {"measurement": "K-562 TGI", "setting": "K-562; K-562", "result": "6.20E-08"},
      {"measurement": "A-549 TGI", "setting": "A-549; A-549", "result": "6.20E-08"},
      {"measurement": "GI50", "setting": "A-549; Homo sapiens, A549, 48 h, A-549, read-out: A-549 GI50", "result": 29.8, "unit": "nM"},
      {"measurement": "LC50 (concentration for 50% cell killing)", "setting": "A-549; Homo sapiens, A549, 48 h, read-out: A-549 LC50, A-549", "result": 112, "unit": "nM"},
      {"measurement": "GI50", "setting": "SK-MEL-28; Homo sapiens, SK-MEL-28, 48 h, MEL-28, read-out: MEL-28 GI50", "result": 26.5, "unit": "nM"},
      {"measurement": "CC50", "setting": "SK-MEL-28; Homo sapiens, SK-MEL-28, 48 h, read-out: MEL-28 LC50, MEL-28", "result": 95.9, "unit": "nM"},
      {"measurement": "MEL-28 TGI", "setting": "SK-MEL-28; MEL-28", "result": "5.04E-08"},
      {"measurement": "HT-29 TGI", "setting": "HT-29; HT-29", "result": "8.07E-08"},
      {"measurement": "GI50", "setting": "HT-29; Homo sapiens, HT-29, 48 h, HT-29, read-out: HT-29 GI50", "result": 35, "unit": "nM"},
      {"measurement": "LC50 (concentration for 50% cell killing)", "setting": "HT-29; Homo sapiens, HT-29, 48 h, read-out: HT-29 LC50, HT-29", "result": 11.1, "unit": "µM"},
      {"measurement": "GI50", "setting": "LoVo; Homo sapiens, LoVo, 48 h, LOVO, read-out: LOVO GI50", "result": 24.4, "unit": "nM"},
      {"measurement": "LC50 (concentration for 50% cell killing)", "setting": "LoVo; Homo sapiens, LoVo, 48 h, read-out: LOVO LC50, LOVO", "result": 82.3, "unit": "nM"},
      {"measurement": "LOVO TGI", "setting": "LoVo; LOVO", "result": "4.48E-08"},
      {"measurement": "GI50", "setting": "LoVo-Dox; Homo sapiens, 48 h, LOVO-DOX, read-out: LOVO-DOX GI50", "result": 392, "unit": "nM"},
      {"measurement": "CC50", "setting": "LoVo-Dox; Homo sapiens, 48 h, read-out: LOVO-DOX LC50, LOVO-DOX", "result": 11.1, "unit": "µM"},
      {"measurement": "LOVO-DOX TGI", "setting": "LoVo-Dox; LOVO-DOX", "result": "2.73E-06"},
      {"measurement": "DU-145 TGI", "setting": "DU-145; DU-145", "result": "1.03E-07"},
      {"measurement": "GI50", "setting": "DU-145; Homo sapiens, DU-145, 48 h, DU-145, read-out: DU-145 GI50", "result": 43.1, "unit": "nM"},
      {"measurement": "CC50", "setting": "DU-145; Homo sapiens, DU-145, 48 h, read-out: DU-145 LC50, DU-145", "result": 8.32, "unit": "µM"},
      {"measurement": "GI50", "setting": "LNCaP; Homo sapiens, LNCaP, 48 h, read-out: LNCAP GI50, LNCAP", "result": 21.5, "unit": "nM"},
      {"measurement": "CC50", "setting": "LNCaP; Homo sapiens, LNCaP, 48 h, read-out: LNCAP LC50, LNCAP", "result": 66.5, "unit": "nM"},
      {"measurement": "LNCAP TGI", "setting": "LNCaP; LNCAP", "result": "3.79E-08"},
      {"measurement": "GI50", "setting": "SK-BR-3; Homo sapiens, SK-BR-3, 48 h, SK-BR3, read-out: SK-BR3 GI50", "result": 40.5, "unit": "nM"},
      {"measurement": "CC50", "setting": "SK-BR-3; Homo sapiens, SK-BR-3, 48 h, read-out: SK-BR3 LC50, SK-BR3", "result": 1720, "unit": "nM"},
      {"measurement": "SK-BR3 TGI", "setting": "SK-BR-3; SK-BR3", "result": "9.87E-08"},
      {"measurement": "GI50", "setting": "IGROV-1; Homo sapiens, IGROV-1, 48 h, IGROV, read-out: IGROV GI50", "result": 35.1, "unit": "nM"},
      {"measurement": "CC50", "setting": "IGROV-1; Homo sapiens, IGROV-1, 48 h, read-out: IGROV LC50, IGROV", "result": 915, "unit": "nM"},
      {"measurement": "IGROV TGI", "setting": "IGROV-1; IGROV", "result": "6.54E-08"},
      {"measurement": "GI50", "setting": "IGROV-ET; Homo sapiens, 48 h, IGROV-ET, read-out: IGROV-ET GI50", "result": 63.2, "unit": "nM"},
      {"measurement": "CC50", "setting": "IGROV-ET; Homo sapiens, 48 h, read-out: IGROV-ET LC50, IGROV-ET", "result": 11.1, "unit": "µM"},
      {"measurement": "IGROV-ET TGI", "setting": "IGROV-ET; IGROV-ET", "result": "7.41E-07"},
      {"measurement": "GI50", "setting": "SK-OV-3; Homo sapiens, SK-OV-3, 48 h, SK-OV3, read-out: SK-OV3 GI50", "result": 28.2, "unit": "nM"},
      {"measurement": "LC50", "setting": "SK-OV-3; Homo sapiens, SK-OV-3, 48 h, read-out: SK-OV3 LC50, SK-OV3", "result": 111, "unit": "nM"},
      {"measurement": "SK-OV3 TGI", "setting": "SK-OV-3; SK-OV3", "result": "5.74E-08"},
      {"measurement": "GI50", "setting": "PANC-1; Homo sapiens, PANC-1, 48 h, PANC-1, read-out: PANC-1 GI50", "result": 41.4, "unit": "nM"},
      {"measurement": "LC50 (concentration for 50% net cell kill)", "setting": "PANC-1; Homo sapiens, PANC-1, 48 h, read-out: PANC-1 LC50, PANC-1", "result": 8.32, "unit": "µM"},
      {"measurement": "PANC-1 TGI", "setting": "PANC-1; PANC-1", "result": "1.14E-08"},
      {"measurement": "HMEC-1 TGI", "setting": "HMEC1; HMEC-1", "result": "5.14E-08"},
      {"measurement": "GI50", "setting": "HMEC1; Homo sapiens, HMEC-1, 48 h, HMEC-1, read-out: HMEC-1 GI50", "result": 27.5, "unit": "nM"},
      {"measurement": "LC50", "setting": "HMEC1; Homo sapiens, HMEC-1, 48 h, read-out: HMEC-1 LC50, HMEC-1", "result": 96.1, "unit": "nM"}
    ]}
  ]
}
